Earlier results as cited in patent publication US20220288013A1, “1,8-CINEOL COATED IMPLANTS” (THE BOARD OF TRUSTEES OF THE LELAND STANFORD JUNIOR …, priority 2019, published 2022).

Experiments:
[1] = tested on: head and neck squamous cell carcinoma (HNSCC) cell lines; settings: exposure of different cell lines; permanent HNSCC cell lines
WNT/β-catenin pathway = settings: permanent HNSCC cell lines
Wnt11 = settings: HNSCC cell lines

Compound: CC12CCC(CC1)C(C)(C)O2 [1,8-cineol, 1,3,3-Trimethyl-2-oxabicyclo[2.2.2]octane]
- proliferation [1]: inhibit proliferation
- activity of the WNT/β-catenin pathway (canonical pathway), especially of Wnt11 (WNT/β-catenin pathway): decrease the activity of the WNT/β-catenin pathway
- expression of Wnt11 (Wnt11): reduces expression of Wnt11
